Patent US9237747B2, “Herbicidal compositions comprising 4-amino-3-chloro-5-fluoro-6-(4-chloro-2-fluoro-3-methoxyphenyl) pyridine-2-carboxylic acid or a derivative thereof and insecticides” (priority 2013, dated 2016)
Where two headings read alike, the source gives them in different places.

Assays:
[1] = system: DIGSA; type: in vivo, Digitaria sanguinalis
Procedure: (§1) Seeds or nutlets of the desired test plant species were planted in a soil matrix prepared by mixing a loam or sandy loam soil (e.g., 28.6 percent silt, 18.8 percent clay, and 52.6 percent sand, with a pH of about 5.8 and an organic matter content of about 1.8 percent) and calcareous grit in an 80 to 20 ratio. The soil matrix was contained in plastic pots with a volume of 1 quart and a surface area of 83.6 square centimeters (cm^2). […] The plants were grown for 8-22 days in a greenhouse with an approximate 14 hour (h) photoperiod which was maintained at about 29° C. during the day and 26° C. during the night. Nutrients (Peters Excel® 15-5-15 5-Ca 2-Mg and iron chelate) were applied in the irrigation solution as needed and water was added on a regular basis. Supplemental lighting was provided with overhead metal halide 1000-Watt lamps as necessary. The plants were employed for testing when they reached the first through fourth true leaf stage.
(§2) Treatments consisted of the acid or esters of 4-amino-3-chloro-6-(4-chloro-2-fluoro-3-methoxyphenyl)-5-fluoropyridine-2-carboxylic acid (Compound A), each formulated as an SC (suspension concentrate), and various insecticidal components alone and in combination. Forms of compound A were applied on an acid equivalent basis.
(§3) For treatments comprised of formulated compounds, measured amounts of compounds were placed individually in 25 mL glass vials and diluted in a volume of 1.25% volume per volume (v/v) Agri-Dex® crop oil concentrate to obtain 12× stock solutions. […] Application solutions were prepared by adding an appropriate amount of each stock solution (e.g., 1 mL) and diluted to the appropriate final concentrations with the addition of […] of an aqueous mixture of 1.25% (v/v) crop oil concentrate so that the final spray solutions contained 1.25+/−0.05% (v/v) crop oil concentrate.
(§4) As required, additional water and/or 97:3 v/v acetone/DMSO was added to individual application solutions so that the final acetone and DMSO concentrations of the application solutions being compared were 8.1% and 0.25%, respectively.
(§5) All stock solutions and applications solutions were visually inspected for compound compatibility prior to application. Spray solutions were applied to the plant material with an overhead Mandel track sprayer equipped with 8002E nozzles calibrated to deliver 187 L/ha over an application area of 0.503 square meters (m^2) at a spray height of 18 to 20 inches (46 to 50 cm) above average plant canopy height. Control plants were sprayed in the same manner with the solvent blank.
(§6) The treated plants and control plants were placed in a greenhouse as described above and watered by sub-irrigation to prevent wash-off of the test compounds. After approximately 3 weeks, the condition of the test plants as compared to that of the untreated plants was determined visually and scored on a scale of 0 to 100 percent where 0 corresponds to no injury or growth inhibition and 100 corresponds to complete kill.
(§7) Colby's equation was used to determine the herbicidal effects expected from the mixtures (Colby, S. R. Calculation of the synergistic and antagonistic response of herbicide combinations. Weeds 1967, 15, 20-22.).
(§8) The following equation was used to calculate the expected activity of mixtures containing two active ingredients, A and B: Expected=A+B−(A×B/100)

[2] = system: ECHCG; type: in vivo, Echinochloa crus-galli; details: 22 DAA
Procedure: as §1, §2, §3, §4, §5, §6, §7, §8

[3] = system: LEFCH; experiment: whole plant or invertebrate; type: in vivo, Leptochloa chinensis; details: Dinebra chinensis, post-emergence, 528 h, read-out: Visual Weed Control (%) - 22 DAA LEFCH Obs
Procedure: as §1, §2, §3, §4, §5, §6, §7, §8

[4] = system: LEFFA; experiment: Postemergence foliar-applied weed control, direct-seeded rice (greenhouse); type: in vivo, Leptochloa fascicularis; details: 22 DAA
Source text: (§9) Seeds or nutlets of the desired test plant species were planted in a soil matrix prepared by mixing a loam or sandy loam soil (e.g., 28.6 percent silt, 18.8 percent clay, and 52.6 percent sand, with a pH of about 5.8 and an organic matter content of about 1.8 percent) and calcareous grit in an 80 to 20 ratio. The soil matrix was contained in plastic pots with a volume of 1 quart and a surface area of 83.6 square centimeters (cm^2). When required to ensure good germination and healthy plants, a fungicide treatment and/or other chemical or physical treatment was applied. The plants were grown for 8-22 days in a greenhouse with an approximate 14 hour (h) photoperiod which was maintained at about 29° C. during the day and 26° C. during the night. Nutrients (Peters Excel® 15-5-15 5-Ca 2-Mg and iron chelate) were applied in the irrigation solution as needed and water was added on a regular basis. Supplemental lighting was provided with overhead metal halide 1000-Watt lamps as necessary. The plants were employed for testing when they reached the first through fourth true leaf stage.
as §2
(§10) Treatment requirements were calculated based upon the rates being tested, the concentration of active ingredient or acid equivalent in the formulation, and a 12 milliliter (mL) application volume at a rate of 187 liters per hectare (L/ha).
as §3, §4, §5, §6, §7, §8

[5] = system: LEFPA; experiment: as above; type: in vivo, Leptochloa panicoides
Source text: as §9, §2, §10, §3, §4, §5, §6, §7, §8

[6] = 22 DAA, 140 g ai/ha alone, second part of Table 18
[7] = 22 DAA, 280 g ai/ha alone, second part of Table 18
[8] = 22 DAA, 560 g ai/ha alone, second part of Table 18

CCOC(=O)CC(SP(=S)(OC)OC)C(=O)OCC (stereo not shown) [Malathion, S-1,2-bis(ethoxycarbonyl)ethyl O,O-dimethyl phosphorodithioate]
0%: Visual Weed Control (%) - 22 DAA DIGSA Obs ([1]; 22 DAA, 140 g ai/ha alone) | Visual Weed Control (%) - 22 DAA DIGSA Obs [1, 6] | Visual Weed Control (%) - 22 DAA DIGSA Obs ([1]; 22 DAA, 280 g ai/ha alone) | Visual Weed Control (%) - 22 DAA DIGSA Obs [1, 7] | Visual Weed Control (%) - 22 DAA DIGSA Obs ([1]; 22 DAA, 560 g ai/ha alone) | Visual Weed Control (%) - 22 DAA DIGSA Obs [1, 8] | Visual Weed Control (%) - 22 DAA ECHCG Obs ([2]; 140 g ai/ha alone) | Visual Weed Control (%) - 22 DAA ECHCG Obs ([2]; 280 g ai/ha alone) | Visual Weed Control (%) - 22 DAA ECHCG Obs ([2]; 560 g ai/ha alone) | pest or weed control at 140 g/ha ([3]; 22 DAA, 140 g ai/ha alone) | pest or weed control at 140 g/ha [3, 6] | pest or weed control at 280 g/ha ([3]; 22 DAA, 280 g ai/ha alone) | pest or weed control at 280 g/ha [3, 7] | pest or weed control at 560 g/ha ([3]; 22 DAA, 560 g ai/ha alone) | pest or weed control at 560 g/ha [3, 8] | Visual Weed Control (%) - 22 DAA LEFFA Obs ([4]; 140 g ai/ha alone) | Visual Weed Control (%) - 22 DAA LEFFA Obs ([4]; 280 g ai/ha alone) | Visual Weed Control (%) - 22 DAA LEFFA Obs ([4]; 560 g ai/ha alone) | Visual Weed Control (%) - 22 DAA LEFPA Obs ([5]; 140 g ai/ha alone) | Visual Weed Control (%) - 22 DAA LEFPA Obs ([5]; 280 g ai/ha alone) | Visual Weed Control (%) - 22 DAA LEFPA Obs ([5]; 560 g ai/ha alone)

CCCCOCCOCCOCc1cc2c(cc1CCC)OCO2 [Piperonyl Butoxide, 5-[[2-(2-butoxyethoxy)ethoxy]methyl]-6-propyl-1,3-benzodioxole]
0%: Visual Weed Control (%) - 22 DAA DIGSA Obs ([1]; in vivo) | pest or weed control at 140 g/ha [3] | pest or weed control at 280 g/ha [3] | pest or weed control at 560 g/ha [3] | Visual Weed Control (%) - 22 DAA LEFFA Obs ([4]; 140 g ai/ha alone) | Visual Weed Control (%) - 22 DAA LEFFA Obs ([4]; 560 g ai/ha alone) | Visual Weed Control (%) - 22 DAA LEFPA Obs ([5]; 140 g ai/ha alone) | Visual Weed Control (%) - 22 DAA LEFPA Obs ([5]; 560 g ai/ha alone)
5%: Visual Weed Control (%) - 22 DAA LEFFA Obs ([4]; 280 g ai/ha alone) | Visual Weed Control (%) - 22 DAA LEFPA Obs ([5]; 280 g ai/ha alone)
